Experimental data published in ChEMBL document CHEMBL4152309, “N-phenylsulfonyl-3,5-bis(arylidene)-4-piperidone derivatives as activation NF-κB inhibitors in hepatic carcinoma cell lines” (Eur J Med Chem, 2018).
Active and inactive are the calls of the source. The rule behind the calls is not given here.

Legend:
L02 = test: Cytotoxicity against human LO2 cells assessed as reduction in cell viability after 24 hrs by MTT assay; format: cell-based; details: L02, 24 h
HepG2 = test: Cytotoxicity against human HepG2 cells assessed as reduction in cell viability after 24 hrs by MTT assay; format: functional, cell-based; details: HepG2, 24 h
QGY-7703 = test: Cytotoxicity against human QGY7703 cells assessed as reduction in cell viability after 24 hrs by MTT assay; format: functional, cell-based; details: QGY-7703, 24 h
[1] = Cytotoxicity against human HHL5 cells assessed as reduction in cell viability after 24 hrs by MTT assay; format: cell-based; details: HHL-5, 24 h
[2] = Cytotoxicity against mouse RAW264.7 cells assessed as cell viability at 10 uM after 24 hrs by MTT assay relative to control; format: cell-based; details: read-out: Activity
SMMC-7721 = test: Cytotoxicity against human SMMC7721 cells assessed as reduction in cell viability after 24 hrs by MTT assay; format: functional, cell-based; details: SMMC-7721, 24 h
RAW264.7 = test: Anti-inflammatory activity in mouse RAW264.7 cells assessed as inhibition of LPS-induced TNFalpha secretion at 10 uM pretreated for 2 hrs followed by LPS stimulation and measured after 22 hrs by ELISA; format: functional, cell-based

Row | SMILES | IC50 (L02) [µM] | IC50 (HepG2) [µM] | IC50 (QGY-7703) [µM] | IC50 [1] [µM] | viability at 24 h, 10 µM [2] [%] | IC50 (SMMC-7721) [µM] | inhibition (RAW264.7)
1 | COc1cc(/C=C2\CN(S(=O)(=O)c3ccc(F)cc3)C/C(=C\c3cccc([N+](=O)[O-])c3)C2=O)cc(OC)c1OC | 18.8 | 3.25 | 3.27 | 11.1 | > 80 | 4.9 | –
2 | O=C1/C(=C/c2cccc([N+](=O)[O-])c2)CN(S(=O)(=O)c2ccc(F)cc2)C/C1=C\c1ccccc1F | 17 | 7.04 | 14.9 | 17.8 | > 80 | 7.82 | –
3 | COc1cc(/C=C2\CN(S(=O)(=O)c3ccc(NC(C)=O)cc3)C/C(=C\c3ccccc3F)C2=O)cc(OC)c1 | 15.4 | 6.8 | 3.69 | 15.3 | > 80 | 5.21 | –
4 | CC(=O)Nc1ccc(S(=O)(=O)N2C/C(=C\c3ccccc3F)C(=O)/C(=C/c3ccccc3F)C2)cc1 | 11.6 | 5.84 | 5.5 | 13.3 | > 80 | 7.49 | –
5 | N#Cc1ccc(/C=C2\CN(S(=O)(=O)c3ccc(F)cc3)C/C(=C\c3ccccc3F)C2=O)cc1 | 21.9 | 8.18 | 20.1 | 19 | > 80 | 10.2 | Active
6 | O=C1/C(=C/c2cccc([N+](=O)[O-])c2)CN(S(=O)(=O)c2ccc(F)cc2)C/C1=C\c1cccc([N+](=O)[O-])c1 | 15.5 | 8.76 | 11.9 | 11.2 | > 80 | 3.98 | –
7 | COc1cc(/C=C2\CN(S(=O)(=O)c3ccc(F)cc3)C/C(=C\c3cc(OC)c(OC)c(OC)c3)C2=O)cc(OC)c1OC | 12.1 | 4.2 | 2.22 | 11 | > 80 | 3.84 | –
8 | O=C1/C(=C/c2ccccc2F)CN(S(=O)(=O)c2ccc(F)cc2)C/C1=C\c1ccccc1F | 19.1 | 7.22 | 8.5 | 13.4 | > 80 | 8.37 | –
9 | COc1cc(/C=C2\CN(S(=O)(=O)c3ccc(NC(C)=O)cc3)C/C(=C\c3cc(OC)c(OC)c(OC)c3)C2=O)cc(OC)c1OC | 13.6 | 3.89 | 1.9 | 13.8 | > 80 | 3.47 | –
10 | COc1cc(/C=C2\CN(S(=O)(=O)c3ccc(NC(C)=O)cc3)C/C(=C\c3ccccc3F)C2=O)cc(OC)c1OC | 14 | 4.75 | 2.68 | 12.2 | > 80 | 3.92 | –
11 | COc1cc(/C=C/C(=O)CC(=O)/C=C/c2ccc(O)c(OC)c2)ccc1O [CURCUMIN] | 23.9 | 16 | 21.4 | 22.3 | – | 19.5 | –
12 | COc1cc(/C=C2\CN(S(=O)(=O)c3ccc(F)cc3)C/C(=C\c3ccccc3F)C2=O)cc(OC)c1 | 18.4 | 9.3 | 14 | 16 | > 80 | 6.89 | –
13 | COc1cc(/C=C2\CN(S(=O)(=O)c3ccc(F)cc3)C/C(=C\c3cc(OC)c(OC)c(OC)c3)C2=O)cc(OC)c1 | 12.3 | 3.89 | 5.2 | 11.3 | > 80 | 5.42 | Active
